This passage reports IC50 results from patent US20240376099A1, “COMPOUNDS AND COMPOSITIONS AS INHIBITORS OF ENDOSOMAL TOLL-LIKE RECEPTORS” (Novartis AG, priority 2016, published 2024).

pIC50: −log10 of the molar value.

For orientation: pIC50 means −log10 of the IC50, conventionally taken in molar units.

The assay has as its target T1, TLR8 (Homo sapiens, UniProt Q9NR97).
T1 sequence (Q9NR97 27-1041): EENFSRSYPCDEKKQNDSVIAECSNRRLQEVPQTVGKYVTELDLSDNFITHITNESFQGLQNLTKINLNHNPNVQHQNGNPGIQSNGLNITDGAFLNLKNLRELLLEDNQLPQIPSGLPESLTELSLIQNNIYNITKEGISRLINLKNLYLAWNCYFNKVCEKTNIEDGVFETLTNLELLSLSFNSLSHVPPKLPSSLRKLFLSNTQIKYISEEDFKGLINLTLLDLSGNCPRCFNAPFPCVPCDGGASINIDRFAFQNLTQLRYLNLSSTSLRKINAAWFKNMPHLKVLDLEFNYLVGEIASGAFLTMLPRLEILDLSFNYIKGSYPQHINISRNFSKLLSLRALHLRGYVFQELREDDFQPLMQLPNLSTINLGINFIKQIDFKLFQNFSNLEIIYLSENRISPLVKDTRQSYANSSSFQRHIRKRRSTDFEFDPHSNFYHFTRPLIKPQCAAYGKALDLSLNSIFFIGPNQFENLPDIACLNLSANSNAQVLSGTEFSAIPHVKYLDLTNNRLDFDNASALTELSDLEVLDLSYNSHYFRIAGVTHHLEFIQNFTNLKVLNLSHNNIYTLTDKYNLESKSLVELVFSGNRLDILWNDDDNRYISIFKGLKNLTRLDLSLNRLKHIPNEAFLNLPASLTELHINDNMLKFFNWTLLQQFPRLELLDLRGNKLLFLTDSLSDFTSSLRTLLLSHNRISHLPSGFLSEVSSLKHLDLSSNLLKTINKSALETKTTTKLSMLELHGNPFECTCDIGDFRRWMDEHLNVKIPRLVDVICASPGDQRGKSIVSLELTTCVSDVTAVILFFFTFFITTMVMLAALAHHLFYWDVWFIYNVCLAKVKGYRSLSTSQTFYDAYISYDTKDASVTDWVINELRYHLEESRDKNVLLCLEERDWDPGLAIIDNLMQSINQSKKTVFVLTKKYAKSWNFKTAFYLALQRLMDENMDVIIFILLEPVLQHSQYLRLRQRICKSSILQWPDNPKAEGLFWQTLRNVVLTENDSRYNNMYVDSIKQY
Kind of assay: huPBMC TLR8 Antagonist IL-6 TR-FRET Assay. In kind it is cell-based. Also noted: Fresh blood was collected from normal human donors; endogenous in cells; host or cells: human PBMCs from fresh donor blood. To be noted: human PBMCs stimulated with ssRNA40 1 μg/ml (DOTAP), 14-16 hrs; IL-6 TR-FRET read-out. In short, it runs like this: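 Human PBMCs from fresh donor blood (150,000 cells/well) stimulated 14–16 h at 37 °C with DOTAP-complexed ssRNA40 (final 1 μg/ml for TLR8, 10 μg/mL for TLR7) or ODN2216 (final 0.3 μM, TLR9), 0.25% DMSO, ten-point 1/3 compound dilutions. Supernatant IL-6 read by HTRF (TLR8); IFNα by IFNα2b AlphaLISA (TLR7/TLR9).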
In the case of `Cc1cc(N2CCc3c(c(C)nn3CC34CCC(N5CC[C@H](O)C5)(CC3)CC4)C2)c2cnn(C)c2n1` [compound 75, (S)-1-(4-((5-(1,6-dimethyl-1H-pyrazolo[3,4-b]pyridin-4-yl)-3-methyl-4,5,6,7-tetrahydro-1H-pyrazolo[4,3-c]pyridin-1-yl)methyl)bicyclo[2.2.2]octan-1-yl)pyrrolidin-3-ol], the negative-log IC50 (pIC50) was 6.87.
With `Cc1cc(N2CCc3c(c(C)nn3CC34CCC(O)(CC3)CC4)C2)c2cnn(C)c2n1` [compound 46, 4-((5-(1,6-dimethyl-1H-pyrazolo[3,4-b]pyridin-4-yl)-3-methyl-4,5,6,7-tetrahydro-1H-pyrazolo[4,3-c]pyridin-1-yl)methyl)bicyclo[2.2.2]octan-1-ol] the figure was less than 5.00; with `Cc1cc(N2CCc3c(c(C)nn3CC34CCC(NC(C)CO)(CC3)CC4)C2)c2cnn(C)c2n1` (stereo not drawn) [compound 56, 2-((4-((5-(1,6-dimethyl-1H-pyrazolo[3,4-b]pyridin-4-yl)-3-methyl-4,5,6,7-tetrahydro-1H-pyrazolo[4,3-c]pyridin-1-yl)methyl)bicyclo[2.2.2]octan-1-yl)amino)propan-1-ol], 6.53; with `CCOCCNC12CCC(Cn3nc(C)c4c3CCN(c3cc(C)nc5c3cnn5C)C4)(CC1)CC2` [compound 71, 4-((5-(1,6-dimethyl-1H-pyrazolo[3,4-b]pyridin-4-yl)-3-methyl-4,5,6,7-tetrahydro-1H-pyrazolo[4,3-c]pyridin-1-yl)methyl)-N-(2-ethoxyethyl)bicyclo[2.2.2]octan-1-amine], 7.85.
With `Cc1cc(N2CCc3c(c(C)nn3CC34CCC(N(C)C5CCC5)(CC3)CC4)C2)c2cnn(C)c2n1` [compound 79, N-cyclobutyl-4-((5-(1,6-dimethyl-1H-pyrazolo[3,4-b]pyridin-4-yl)-3-methyl-4,5,6,7-tetrahydro-1H-pyrazolo[4,3-c]pyridin-1-yl)methyl)-N-methylbicyclo[2.2.2]octan-1-amine] the figure was 6.87.
With `Cc1cc(N2CCc3c(c(C)nn3CC34CCC(NC(=O)OC5(C)CC5)(CC3)CC4)C2)c2cnn(C)c2n1` [Compound No. 51, 1-methylcyclopropyl (4-((5-(1,6-dimethyl-1H-pyrazolo[3,4-b]pyridin-4-yl)-3-methyl-4,5,6,7-tetrahydro-1H-pyrazolo[4,3-c]pyridin-1-yl)methyl)bicyclo[2.2.2]octan-1-yl)carbamate] the figure was less than 5.00; with `Cc1cc(N2CCc3c(c(C)nn3CC34CCC(N5CCC5)(CC3)CC4)C2)c2cnn(C)c2n1` [compound 64, 1-((4-(azetidin-1-yl)bicyclo[2.2.2]octan-1-yl)methyl)-5-(1,6-dimethyl-1H-pyrazolo[3,4-b]pyridin-4-yl)-3-methyl-4,5,6,7-tetrahydro-1H-pyrazolo[4,3-c]pyridine], 6.94; with `Cc1cc(N2CCc3c(c(C)nn3CCC34CCC(N)(CC3)CC4)C2)c2cnn(C)c2n1` [compound 91, 4-(2-(5-(1,6-dimethyl-1H-pyrazolo[3,4-b]pyridin-4-yl)-3-methyl-4,5,6,7-tetrahydro-1H-pyrazolo[4,3-c]pyridin-1-yl)ethyl)bicyclo[2.2.2]octan-1-amine], 6.42.
Turning to `COc1ccc(Cn2ncc3c(N4CCc5c(c(C)nn5CC56CCC(N)(CC5)CC6)C4)cc(C)nc32)cc1` [Compound No. 53, 4-((5-(1-(4-methoxybenzyl)-6-methyl-1H-pyrazolo[3,4-b]pyridin-4-yl)-3-methyl-4,5,6,7-tetrahydro-1H-pyrazolo[4,3-c]pyridin-1-yl)methyl)bicyclo[2.2.2]octan-1-amine], the pIC50 was 5.94.
With `Cc1cc(N2CCc3c(c(C)nn3CC34CCC(N)(CC3)CC4)C2)c2ccnc(C)c2n1` [compound 92, 4-((5-(2,8-dimethyl-1,7-naphthyridin-4-yl)-3-methyl-4,5,6,7-tetrahydro-1H-pyrazolo[4,3-c]pyridin-1-yl)methyl)bicyclo[2.2.2]octan-1-amine] the figure was 7.40; with `Cc1cc(N2CCc3c(c(C)nn3CC34CCC(N5C[C@H](O)[C@@H](O)C5)(CC3)CC4)C2)c2cnn(C)c2n1` [compound 80, (3S,4S)-1-(4-((5-(1,6-dimethyl-1H-pyrazolo[3,4-b]pyridin-4-yl)-3-methyl-4,5,6,7-tetrahydro-1H-pyrazolo[4,3-c]pyridin-1-yl)methyl)bicyclo[2.2.2]octan-1-yl)pyrrolidine-3,4-diol], 6.33.
With `Cc1cc(N2CCc3nn(CC45CC(N)(C4)C5)c(C)c3C2)c2cnn(C)c2n1` [compound 52, 3-((5-(1,6-dimethyl-1H-pyrazolo[3,4-b]pyridin-4-yl)-3-methyl-4,5,6,7-tetrahydro-2H-pyrazolo[4,3-c]pyridin-2-yl)methyl)bicyclo[1.1.1]pentan-1-amine] the figure was less than 5.00; with `CNC12CCC(Cn3nc(C)c4c3CCN(c3cc(C)nc5c3cnn5C)C4)(CC1)CC2` [Compound No. 50, 4-((5-(1,6-dimethyl-1H-pyrazolo[3,4-b]pyridin-4-yl)-3-methyl-4,5,6,7-tetrahydro-1H-pyrazolo[4,3-c]pyridin-1-yl)methyl)-N-methylbicyclo[2.2.2]octan-1-amine], 6.51; with `Cc1cc(N2CCc3c(c(C)nn3CC34CCC(N5CCOCC5)(CC3)CC4)C2)c2cnn(C)c2n1` [Compound No. 59, 4-(4-((5-(1,6-dimethyl-1H-pyrazolo[3,4-b]pyridin-4-yl)-3-methyl-4,5,6,7-tetrahydro-1H-pyrazolo[4,3-c]pyridin-1-yl)methyl)bicyclo[2.2.2]octan-1-yl)morpholine], 7.28.
In the case of `Cc1cc(N2CCc3c(c(C)nn3CC34CCC(N5CCCC5)(CC3)CC4)C2)c2ccncc2n1` [compound 86, 2-methyl-4-(3-methyl-1-((4-(pyrrolidin-1-yl)bicyclo[2.2.2]octan-1-yl)methyl)-6,7-dihydro-1H-pyrazolo[4,3-c]pyridin-5(4H)-yl)-1,7-naphthyridine], the negative logarithm of the IC50 (pIC50) was 7.32.
As to `Cc1cc(N2CCc3c(c(C)nn3CC34CCC(N(C)C(=O)OC(C)(C)C)(CC3)CC4)C2)c2cnn(C)c2n1` [Compound No. 49, tert-butyl (4-((5-(1,6-dimethyl-1H-pyrazolo[3,4-b]pyridin-4-yl)-3-methyl-4,5,6,7-tetrahydro-1H-pyrazolo[4,3-c]pyridin-1-yl)methyl)bicyclo[2.2.2]octan-1-yl)(methyl)carbamate], the pIC50 is less than 5.00.
Turning to `Cc1cc(N2CCc3c(c(C)nn3CC34CCC(N)(CC3)CC4)C2)c2cn[nH]c2n1` [Compound No. 2, 4-((3-methyl-5-(6-methyl-1H-pyrazolo[3,4-b]pyridin-4-yl)-4,5,6,7-tetrahydro-1H-pyrazolo[4,3-c]pyridin-1-yl)methyl)bicyclo[2.2.2]octan-1-amine], the pIC50 is less than 5.00.
The same measure for `Cc1nn(CC23CCC(N)(CC2)CC3)c2c1CN(c1ccnc(-c3ccc(C#N)cc3)c1)CC2` [Compound No. 84, 4-(4-(1-((4-aminobicyclo[2.2.2]octan-1-yl)methyl)-3-methyl-6,7-dihydro-1H-pyrazolo[4,3-c]pyridin-5(4H)-yl)pyridin-2-yl)benzonitrile]: 6.08.
As to `Cc1nn(CC23CCC(N4CCCC4)(CC2)CC3)c2c1CN(c1ccnc(-c3ccccc3)c1)CC2` [compound 85, 3-methyl-5-(2-phenylpyridin-4-yl)-1-((4-(pyrrolidin-1-yl)bicyclo[2.2.2]octan-1-yl)methyl)-4,5,6,7-tetrahydro-1H-pyrazolo[4,3-c]pyridine], the pIC50 is 6.65.
With `CCOCCN(CCOCC)C12CCC(Cn3nc(C)c4c3CCN(c3cc(C)nc5c3cnn5C)C4)(CC1)CC2` [compound 72, 4-((5-(1,6-dimethyl-1H-pyrazolo[3,4-b]pyridin-4-yl)-3-methyl-4,5,6,7-tetrahydro-1H-pyrazolo[4,3-c]pyridin-1-yl)methyl)-N,N-bis(2-ethoxyethyl)bicyclo[2.2.2]octan-1-amine], the pIC50 is 6.99.
As for `Cc1cc(N2CCc3c(c(C)nn3CC34CCC(N(C)C5COC5)(CC3)CC4)C2)c2cnn(C)c2n1` [Compound No. 77, N-(4-((5-(1,6-dimethyl-1H-pyrazolo[3,4-b]pyridin-4-yl)-3-methyl-4,5,6,7-tetrahydro-1H-pyrazolo[4,3-c]pyridin-1-yl)methyl)bicyclo[2.2.2]octan-1-yl)-N-methyloxetan-3-amine], the negative logarithm of the IC50 (pIC50) was 6.50.
